Experimental data from patent US6420313B1, “Thienylalkylamino-1,3,5-triazines and the use thereof as herbicides” (Bayer Aktiengesellschaft, priority 1998, dated 2002).

Experiments:
Format in all cases: in vivo
Veronica = assay: Pre-emergence test/greenhouse, Veronica; conditions: 504 h, 500 g of ai./ha, after three weeks, read-out: degree of damage, Veronica
Method: (§1) Solvent: 5 parts by weight of acetone
(§2) Emulsifier: 1 part by weight of alkylaryl polyglycol ether
(§3) To produce a suitable preparation of active compound, 1 part by weight of active compound is mixed with the stated amount of solvent, the stated amount of emulsifier is added and the concentrate is diluted with water to the desired concentration.
(§4) Seeds of the test plants are sown in normal soil. After about 24 hours, the soil is sprayed with the preparation of active compound such that the particular amount of active compound desired is applied per unit area. The concentration of the spray liquor is chosen so that the particular amount of active compound desired is applied in 1000 liters of water per hectare.
(§5) After three weeks, the degree of damage to the plants is rated in % damage in comparison to the development of the untreated control.
(§6) 0%=no effect (like untreated control)

Solanum = assay: Pre-emergence test/greenhouse, Solanum; conditions: 500 g of ai./ha, after three weeks
Method: as §1, §2, §3, §4, §5, §6

Digitaria = assay: Pre-emergence test/greenhouse, Digitaria; conditions: 500 g of ai./ha, after three weeks
Method: as §1, §2, §3, §4, §5, §6

Viola = assay: Pre-emergence test/greenhouse, Viola; conditions: after three weeks
Method: as §1, §2, §3, §4, §5, §6

Setaria = assay: Pre-emergence test/greenhouse, Setaria; conditions: 500 g of ai./ha, after three weeks
Method: as §1, §2, §3, §4, §5, §6

barley = assay: Pre-emergence test/greenhouse, barley; conditions: 500 g of ai./ha, after three weeks
Method: as §1, §2, §3, §4, §5, §6

Cyperus = assay: Pre-emergence test/greenhouse, Cyperus; conditions: 500 g of ai./ha, after three weeks
Method: as §1, §2, §3, §4, §5, §6

Matricaria = assay: Pre-emergence test/greenhouse, Matricaria; conditions: 500 g of ai./ha, after three weeks
Method: as §1, §2, §3, §4, §5, §6

cotton = assay: Pre-emergence test/greenhouse, cotton; conditions: 500 g of ai./ha, after three weeks
Method: as §1, §2, §3, §4, §5, §6

Datura = assay: Pre-emergence test/greenhouse, Datura; conditions: 500 g of ai./ha, after three weeks
Method: as §1, §2, §3, §4, §5, §6

soya = assay: Pre-emergence test/greenhouse, soya; conditions: 500 g of ai./ha, after three weeks
Method: as §1, §2, §3, §4, §5, §6

Lolium = assay: Pre-emergence test/greenhouse, Lolium; conditions: 500 g of ai./ha, after three weeks
Method: as §1, §2, §3, §4, §5, §6

## CCC(CCc1sccc1Br)Nc1nc(N)nc(C(C)(C)F)n1 (centres unmarked) [drawing 240]
Veronica
  pest or weed control at 500 g/ha: 100%

## CCC(CCc1sccc1Br)Nc1nc(N)nc(C(C)F)n1 (centres unmarked) [drawing 241]
Solanum
  degree of damage, Solanum: 100%
Veronica
  pest or weed control at 500 g/ha: 100%
Digitaria
  degree of damage, Digitaria: 100%

## CCC(CCc1sccc1Br)Nc1nc(NC(C)=O)nc(C(C)F)n1 (centres unmarked) [drawing 242]
Solanum
  degree of damage, Solanum: 100%
Veronica
  pest or weed control at 500 g/ha: 100%

## CCC(CCc1cc(C)sc1C)Nc1nc(N)nc(C(C)F)n1 (centres unmarked) [drawing 243]
Solanum
  degree of damage, Solanum: 100%
Veronica
  pest or weed control at 500 g/ha: 100%
Digitaria
  degree of damage, Digitaria: 100%

## CCC(CCc1cc(C)sc1C)Nc1nc(NC(C)=O)nc(C(C)(C)F)n1 (centres unmarked) [drawing 244]
Veronica
  pest or weed control at 500 g/ha: 100%

## CC(CCCc1cccs1)Nc1nc(N)nc(C(C)(C)F)n1 (centres unmarked) [drawing 245]
Viola; 1000 g of ai./ha
  degree of damage, Viola: 100%

## CCC(CCc1ccc(Br)s1)Nc1nc(N)nc(C(C)F)n1 (centres unmarked) [drawing 246]
Viola; 500 g of ai./ha
  degree of damage, Viola: 100%

## CCC(CCc1ccc(Br)s1)Nc1nc(N)nc(C(C)(C)F)n1 (centres unmarked) [drawing 247]
Viola; 500 g of ai./ha
  degree of damage, Viola: 100%

## CCC(CCc1cc(Br)cs1)Nc1nc(NC(C)=O)nc(C(C)F)n1 (centres unmarked) [drawing 248]
Setaria
  degree of damage, Setaria: 95%
barley
  degree of damage, barley: 0%
Viola; 500 g of ai./ha
  degree of damage, Viola: 100%

## CCC(CCc1cc(Br)cs1)Nc1nc(NC(C)=O)nc(C(C)(C)F)n1 (centres unmarked) [drawing 249]
Setaria
  degree of damage, Setaria: 95%
Viola; 500 g of ai./ha
  degree of damage, Viola: 100%

## CCC(CCc1sccc1Br)Nc1nc(N)nc(C(C)(C)F)n1 (centres unmarked) [drawing 250]
Cyperus
  degree of damage, Cyperus: 100%
Matricaria
  degree of damage, Matricaria: 100%

## CCC(CCc1sccc1Br)Nc1nc(NC(C)=O)nc(C(C)F)n1 (centres unmarked) [drawing 252]
Matricaria
  degree of damage, Matricaria: 100%

## CCC(CCc1cc(C)sc1C)Nc1nc(N)nc(C(C)F)n1 (centres unmarked) [drawing 253]
Viola; 500 g of ai./ha
  degree of damage, Viola: 100%

## CCC(CCc1cc(C)sc1C)Nc1nc(NC(C)=O)nc(C(C)(C)F)n1 (centres unmarked) [drawing 254]
Viola; 500 g of ai./ha
  degree of damage, Viola: 100%
Matricaria
  degree of damage, Matricaria: 95%

## CCC(CCc1sccc1Br)Nc1nc(N)nc(C(C)F)n1 (centres unmarked) [drawing 261]
cotton
  degree of damage, cotton: 0%
Datura
  degree of damage, Datura: 100%

## CCC(CCc1sccc1Br)Nc1nc(NC(C)=O)nc(C(C)F)n1 (centres unmarked) [drawing 262]
cotton
  degree of damage, cotton: 0%

## CCC(CCc1cc(C)sc1C)Nc1nc(N)nc(C(C)F)n1 (centres unmarked) [drawing 263]
soya
  degree of damage, soya: 0%

## CCC(CCc1cc(C)sc1C)Nc1nc(NC(C)=O)nc(C(C)(C)F)n1 (centres unmarked) [drawing 264]
Lolium
  degree of damage, Lolium: 90%
